# Laboratory results published in US20200190062A1, “HETEROCYCLIC COMPOUND AND PHARMACEUTICAL COMPOSITION COMPRISING SAME” (BEYONDBIO INC., priority 2015, published 2020).
# Structures can show the parent of a compound that is named as a salt. Where two headings read alike, the source gives them in different places.
# Assays:
# [1] = target: T1, CDK5/p25 (Homo sapiens, UniProt Q00535); test: Inhibition of CDK enzyme activity (ADP-Glo kinase assay); format: biochemical; settings: 10 uM ATP, histone H1 substrate
# T1 construct: purchased Merck Millipore
# Procedure, shortened: (§1)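 Kinase reactions in 50 mM Tris-HCl pH 7.5 with MgCl2, EGTA, EDTA and DTT, at 10 µM ATP. CDK2/cyclinE and CDK5/p25 were used at 10 nM and CDK6/cyclinD3 at 50 nM with 0.125 mg/ml histone H1; CDK4/cyclinD1 was used at 20 nM with 0.125 mg/ml Rb protein. After 60 min at 30 °C, ADP was read by ADP-Glo luminescence and IC50 taken from % inhibition versus no-compound control.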
# [2] = test system: A549; test: Inhibition of cancer cell proliferation (MTT); format: cell-based, human; settings: Homo sapiens, A549, 72 h
# Procedure, shortened: (§2)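 Growth inhibition over 72 h was measured in attached cultures (3000 per well) with 0.08% DMSO as the control. Viable cells were detected with a 2 h MTT step, and the concentration giving 50% inhibition was taken as GI50.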
# [3] = test system: NCI-H23; test: Inhibition of cancer cell proliferation (MTT); format: cell-based, human; settings: Homo sapiens, NCI-H23, 72 h
# Procedure, shortened: as §2
# [4] = Blood brain barrier permeation; format: in vivo, ICR mice; settings: male, ICR, mouse, po; for Kp at 1 h / Kp at 4 h: brain/plasma, read-out: B/P ratio
# Procedure: Using 9-week-old male ICR mice, the compounds obtained in the above Examples were orally administered once at a dose of 10 mg/kg or 30 mg/kg, and after 1 hr and 4 hrs, the concentrations of the compounds in the blood and brain of the mice were determined. 3 ICR mice were assigned in each group. Plasma was separated from the blood obtained after sacrificing the mice at each time, the brain of the mice was extracted, and the […] was washed with PBS, followed by pulverizing the brain tissue. The blood was placed in a test tube containing heparin to prevent coagulation and then was centrifuged at 12,000 rpm at 4° C. for 3 min to give a supernatant from which plasma was collected. Brain tissue was weighed, and the brain was pulverized using Dounce's homogenizer after adding 3 times as much volume of PBS as the brain weight. Each of the obtained analytical samples was quantitatively analyzed using a tandem liquid chromatography-mass spectrometer (Tandem LC/MS/MS, API3000 & Agilent 1100 series). Brain permeability of a compound is expressed as a value obtained by dividing the concentration of the compound in the brain by the concentration of the compound in the plasma (B/P ratio), and when the B/P ratio is greater than 1, it means that the concentration in the brain is higher than the one in the blood.
# [5] = target: T2, CDK6/cyclinD3 (Homo sapiens, UniProt Q00534); test: Inhibition of CDK enzyme activity (ADP-Glo kinase assay); format: biochemical; settings: 10 uM ATP, histone H1 substrate; read-out: IC50 CDK6/cyclinD
# T2 construct: purchased Merck Millipore
# Procedure, shortened: as §1
# [6] = test system: T98G; test: Inhibition of cancer cell proliferation (MTT); format: cell-based, human
# Procedure, shortened: as §2
# [7] = brain, 10 mg/kg, oral once 10 mg/kg, read-out: Concentration in the brain
# [8] = brain, 30 mg/kg, oral once 30 mg/kg, read-out: Concentration in the brain
# [9] = plasma, 10 mg/kg, oral once 10 mg/kg, read-out: Concentration in the plasma
# [10] = plasma, 30 mg/kg, oral once 30 mg/kg, read-out: Concentration in the plasma
# T2 sequence (Q00534 whole entry): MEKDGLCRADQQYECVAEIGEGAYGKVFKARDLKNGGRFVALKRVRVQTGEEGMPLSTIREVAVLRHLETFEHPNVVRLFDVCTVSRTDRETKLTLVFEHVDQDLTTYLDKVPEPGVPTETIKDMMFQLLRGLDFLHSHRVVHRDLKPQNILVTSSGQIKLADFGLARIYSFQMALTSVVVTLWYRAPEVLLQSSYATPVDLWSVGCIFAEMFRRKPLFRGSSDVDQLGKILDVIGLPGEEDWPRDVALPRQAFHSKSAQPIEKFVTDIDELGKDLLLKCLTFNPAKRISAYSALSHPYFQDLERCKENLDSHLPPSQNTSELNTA
# T2 sequence (P30281 whole entry partner): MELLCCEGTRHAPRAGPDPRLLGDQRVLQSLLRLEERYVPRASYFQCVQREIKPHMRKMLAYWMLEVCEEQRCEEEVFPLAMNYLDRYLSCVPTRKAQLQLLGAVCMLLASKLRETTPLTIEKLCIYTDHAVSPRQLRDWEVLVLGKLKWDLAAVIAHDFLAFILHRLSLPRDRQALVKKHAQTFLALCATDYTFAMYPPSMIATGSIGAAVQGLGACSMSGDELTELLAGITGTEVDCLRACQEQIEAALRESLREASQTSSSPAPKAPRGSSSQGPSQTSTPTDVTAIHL
# T1 sequence (Q00535 whole entry): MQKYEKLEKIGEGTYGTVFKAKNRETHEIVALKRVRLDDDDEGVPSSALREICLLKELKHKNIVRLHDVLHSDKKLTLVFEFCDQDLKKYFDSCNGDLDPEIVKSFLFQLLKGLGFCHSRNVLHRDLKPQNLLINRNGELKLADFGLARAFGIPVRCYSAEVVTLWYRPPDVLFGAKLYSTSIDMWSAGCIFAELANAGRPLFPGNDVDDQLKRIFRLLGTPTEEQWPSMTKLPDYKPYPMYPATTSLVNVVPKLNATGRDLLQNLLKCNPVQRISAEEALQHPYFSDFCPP
# T1 sequence (Q15078 99-307 partner limits assumed): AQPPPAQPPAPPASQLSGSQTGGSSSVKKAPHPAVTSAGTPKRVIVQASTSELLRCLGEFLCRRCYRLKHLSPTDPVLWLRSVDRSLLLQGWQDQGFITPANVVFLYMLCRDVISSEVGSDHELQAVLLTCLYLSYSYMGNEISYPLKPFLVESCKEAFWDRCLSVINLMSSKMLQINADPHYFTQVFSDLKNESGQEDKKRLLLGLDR
IC50 [1],GI50 [2],GI50 [3],"concentration at 1 h [4, 7]","concentration at 4 h [4, 7]","concentration at 1 h [4, 8]","concentration at 4 h [4, 8]","Kp at 1 h ([4]; 10 mg/kg, oral once 10 mg/kg)","Kp at 4 h ([4]; 10 mg/kg, oral once 10 mg/kg)","Kp at 1 h ([4]; 30 mg/kg, oral once 30 mg/kg)","Kp at 4 h ([4]; 30 mg/kg, oral once 30 mg/kg)","concentration at 1 h [4, 9]","concentration at 4 h [4, 9]","concentration at 1 h [4, 10]","concentration at 4 h [4, 10]",IC50 [5],"GI50 ([6]; Homo sapiens, T98G, 72 h)",GI50 ([6]; 72 hrs),SMILES
0.9 nM,210 nM,430 nM,296 ng/g,90.3 ng/g,768 ng/g,577 ng/g,1.05,1.04,2.76,4.49,283 ng/mL,86.5 ng/mL,278 ng/mL,129 ng/mL,,,,"Nc1nccc(-c2ccc(O)c(-c3ccnc(N)n3)n2)n1 [Example 61, 2,6-bis(2-aminopyrimidin-4-yl)pyridin-3-ol 3hydrochloride]"
2.4 nM,,,,,,,,,,,,,,,> 200 nM,,,"Nc1nccc(-c2ccc(O)c(-c3ccnc(N)n3)n2)n1 [Example 1, 2,6-bis(2-aminopyrimidin-4-yl)pyridin-3-ol]"
1.2 nM,,,,,129 ng/g,23.2 ng/g,,,1.56,2.78,,,82.6 ng/mL,8.3 ng/mL,> 200 nM,,,"Nc1cc(-c2ccc(O)c(-c3ccnc(N)n3)n2)ccn1 [Example 10, 2′-amino-6-(2-aminopyrimidin-4-yl)-[2,4′-bipyridin]-5-ol]"
0.3 nM,20 nM,40 nM,3120 ng/g,165 ng/g,,,2.26,3.18,,,1380 ng/mL,52.1 ng/mL,,,29.8 nM,60 nM,,"Cc1cc(-c2nc(-c3ccnc(N)c3F)ccc2O)nc(N)n1 [Example 71, 2′-amino-6-(2-amino-6-methylpyrimidin-4-yl)-3′-fluoro-[2,4′-bipyridin]-5-ol 3hydrochloride]"
0.22 nM,,,,,144 ng/g,70.9 ng/g,,,1.53,2.41,,,94.3 ng/mL,29.4 ng/mL,47 nM,,190 nM,Nc1nccc(-c2nc(-c3ccnc(N)c3F)ccc2O)n1 [Example 8]
